From ChEMBL document CHEMBL1201862, “PubChem BioAssay data set” (2004)
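A five-concentration, 48-hour dose response in 96-well plates underlies each endpoint, interpolated linearly between surrounding concentrations. Abbreviation: GI50, concentration required for 50% inhibition of growth.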 The source made the active and inactive calls. Rule as the data show it: active = GI50 up to about 1.1 µM and inactive = higher.

Assays:
Assay in all cases: inhibition of tumour cell growth, NCI panel, 48 h
CAKI-1 = test system: CAKI-1
PC-3 = test system: PC-3
RXF 393 = test system: RXF 393
SN12C = test system: SN12C
MDA-MB-231 = test system: MDA-MB-231
K562 = test system: K562
KM12 = test system: KM12
OVCAR-4 = test system: OVCAR-4
HCT-116 = test system: HCT-116
OVCAR-5 = test system: OVCAR-5
SK-MEL-28 = test system: SK-MEL-28
ACHN = test system: ACHN
SF-539 = test system: SF-539
SF-268 = test system: SF-268
HCT-15 = test system: HCT-15
HL-60 = test system: HL-60
SNB-19 = test system: SNB-19
M14 = test system: M14
MOLT-4 = test system: MOLT-4
BT-549 = test system: BT-549

Structure (SMILES) | GI50 (CAKI-1) | GI50 (PC-3) | GI50 (RXF 393) | GI50 (SN12C) | GI50 (MDA-MB-231) | GI50 (K562) | GI50 (KM12) | GI50 (OVCAR-4) | GI50 (HCT-116) | GI50 (OVCAR-5) | GI50 (SK-MEL-28) | GI50 (ACHN) | GI50 (SF-539) | GI50 (SF-268) | GI50 (HCT-15) [µM] | GI50 (HL-60) | GI50 (SNB-19) | GI50 (M14) | GI50 (MOLT-4) | GI50 (BT-549)
O=C1Nc2ccccc2/C1=N/NC(=S)Nc1ccccc1Cl | 3.8 µM (inactive) | 5.93 µM (inactive) | 5.2 µM (inactive) | 10.4 µM (inactive) | 11.3 µM (inactive) | 1.54 µM (inactive) | 1.98 µM (inactive) | 5.13 µM (inactive) | 0.729 µM (active) | 26.5 µM (inactive) | 12.2 µM (inactive) | 2.19 µM (inactive) | 2.4 µM (inactive) | 0.706 µM (active) | 2.31 | 4.44 µM (inactive) | 4.84 µM (inactive) | 1.62 µM (inactive) | 1.43 µM (inactive) | –
O=c1cc(O)ccn1C1C=C(CO)C(O)C1O (stereo not drawn) | > 625 µM (inactive) | – | > 625 µM (inactive) | 586 µM (inactive) | – | – | > 625 µM (inactive) | > 625 µM (inactive) | 263 µM (inactive) | – | > 625 µM (inactive) | – | > 625 µM (inactive) | > 625 µM (inactive) | > 625 | 183 µM (inactive) | > 625 µM (inactive) | – | – | –
Cc1c(/C=N/NC(=O)c2ccccc2O)c(=O)n(-c2ccccc2)n1C | – | – | 49.2 µM (inactive) | > 100 µM (inactive) | – | > 100 µM (inactive) | > 100 µM (inactive) | > 100 µM (inactive) | 64.9 µM (inactive) | – | > 100 µM (inactive) | > 100 µM (inactive) | > 100 µM (inactive) | > 100 µM (inactive) | 29.2 | 28.1 µM (inactive) | > 100 µM (inactive) | > 100 µM (inactive) | 72.6 µM (inactive) | –
COc1ccc(C(CC(=O)c2cccs2)C(=O)c2ccc3c(c2)OCO3)cc1 (stereo not drawn) | > 100 µM (inactive) | > 100 µM (inactive) | – | > 100 µM (inactive) | > 100 µM (inactive) | > 100 µM (inactive) | > 100 µM (inactive) | > 100 µM (inactive) | > 100 µM (inactive) | – | > 100 µM (inactive) | > 100 µM (inactive) | > 100 µM (inactive) | > 100 µM (inactive) | > 100 | > 100 µM (inactive) | – | > 100 µM (inactive) | > 100 µM (inactive) | –
COc1ccc(OC)c2c1C(=O)C(Cl)=C(N1CCN(CCOCCO)CC1)C2=O | – | 6.37 µM (inactive) | 19 µM (inactive) | 12.4 µM (inactive) | 13.9 µM (inactive) | 1.91 µM (inactive) | 20.5 µM (inactive) | 17.9 µM (inactive) | 4.66 µM (inactive) | 21 µM (inactive) | 16.1 µM (inactive) | 16.6 µM (inactive) | 17.8 µM (inactive) | 13.6 µM (inactive) | 7.38 | 1.08 µM (active) | 16 µM (inactive) | 17.2 µM (inactive) | 4.32 µM (inactive) | 14.8 µM (inactive)
COCO[C@@H]1C[C@H]2C(O)Nc3ccccc3C(=O)N2C1 (stereo partly drawn) | > 100 µM (inactive) | > 100 µM (inactive) | > 100 µM (inactive) | – | > 100 µM (inactive) | > 100 µM (inactive) | > 100 µM (inactive) | > 100 µM (inactive) | – | > 100 µM (inactive) | > 100 µM (inactive) | > 100 µM (inactive) | > 100 µM (inactive) | > 100 µM (inactive) | > 100 | > 100 µM (inactive) | > 100 µM (inactive) | > 100 µM (inactive) | > 100 µM (inactive) | –
